The values that follow come from US9604975B2, “Indolyl-pyridone derivatives having checkpoint kinase 1 inhibitory activity” (Vernalis (R&D) Ltd., priority 2009, dated 2017).

The target of this assay is T1, CHK1 (Homo sapiens, UniProt O14757).
T1 construct: His; purchased Invitrogen
T1 sequence (O14757 1-476): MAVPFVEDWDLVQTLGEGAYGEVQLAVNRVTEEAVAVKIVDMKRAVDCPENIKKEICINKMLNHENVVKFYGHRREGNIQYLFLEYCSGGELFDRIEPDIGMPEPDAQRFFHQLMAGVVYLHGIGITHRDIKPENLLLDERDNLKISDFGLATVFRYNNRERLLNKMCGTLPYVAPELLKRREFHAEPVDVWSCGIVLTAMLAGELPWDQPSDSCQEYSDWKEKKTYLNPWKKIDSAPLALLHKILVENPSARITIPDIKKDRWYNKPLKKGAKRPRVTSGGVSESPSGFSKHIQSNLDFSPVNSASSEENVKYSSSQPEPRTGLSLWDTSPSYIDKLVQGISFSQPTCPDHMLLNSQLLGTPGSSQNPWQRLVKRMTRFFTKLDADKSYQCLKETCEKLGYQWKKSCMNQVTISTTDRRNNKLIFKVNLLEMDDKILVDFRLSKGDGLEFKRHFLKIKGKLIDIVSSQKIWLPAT
The assay can be described thus: CHK1 Enzyme Assay (phosphorylation of Chktide peptide, 33P-ATP filter assay). The assay is classed as biochemical. Conditions: 12.5 nM His-CHK1, 0.01 mM ATP, 40 minutes at 30° C.; read-out: CHK1 Enzyme Activity (IC50 range). The procedure, abridged:
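His-CHK1 (12.5 nM) phosphorylating 14.8 μM Chktide with 0.01 mM ATP plus 33P-γ-ATP, in 50 mM Hepes-NaOH pH 7.5 with 0.1 mg/mL BSA. Incubated with inhibitor for 40 min at 30 °C. Stopped with phosphoric acid; phosphopeptide captured on filter and counted by scintillation.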
Regarding `CCc1cccc(Cn2cc(C(=O)Nc3c[nH]c(=O)c(-c4cc5cc(OCCCN6CCN(C)CC6)ccc5[nH]4)c3)cn2)c1` [Example 127, 1-(3-Ethyl-benzyl)-1H-pyrazole-4-carboxylic acid (5-{5-[3-(4-methyl-piperazin-1-yl)-propoxy]-1H-indol-2-yl}-6-oxo-1,6-dihydro-pyridin-3-yl)-amide], the IC50 (commonly the concentration needed to halve the response being measured) is under 100 nM.
In the case of `CCc1cccc(Cn2cc(C(=O)Nc3c[nH]c(=O)c(-c4cc5cc(OCCN(C)C)ccc5[nH]4)c3)cn2)c1` [Example 128, 1-(3-Ethyl-benzyl)-1H-pyrazole-4-carboxylic acid {5-[5-(2-dimethylamino-ethoxy)-1H-indol-2-yl]-6-oxo-1,6-dihydro-pyridin-3-yl}-amide], the IC50 is under 100 nM.
On to `CCc1cccc(Cn2cc(C(=O)Nc3c[nH]c(=O)c(-c4cc5cc(OCCCN(C)C)ccc5[nH]4)c3)cn2)c1` [Example 129, 1-(3-Ethyl-benzyl)-1H-pyrazole-4-carboxylic acid {5-[5-(3-dimethylamino-propoxy)-1H-indol-2-yl]-6-oxo-1,6-dihydro-pyridin-3-yl}-amide], for which the IC50 is under 100 nM.
As to `CCc1cccc(Cn2cc(C(=O)Nc3c[nH]c(=O)c(-c4cc5cc(OCCN(CC)CC)ccc5[nH]4)c3)cn2)c1` [Example 130, 1-(3-Ethyl-benzyl)-1H-pyrazole-4-carboxylic acid {5-[5-(2-diethylamino-ethoxy)-1H-indol-2-yl]-6-oxo-1,6-dihydro-pyridin-3-yl}-amide], the IC50 is under 100 nM.
As for `Cc1ccc(Cn2cc(C(=O)Nc3c[nH]c(=O)c(-c4cc5cc(OCCN6CC(C)OC(C)C6)ccc5[nH]4)c3)cn2)cc1` (stereo not drawn) [Example 131, 1-(4-Methyl-benzyl)-1H-pyrazole-4-carboxylic acid (5-{5-[2-(2,6-dimethyl-morpholin-4-yl)-ethoxy]-1H-indol-2-yl}-6-oxo-1,6-dihydro-pyridin-3-yl)-amide], the IC50 was under 100 nM.
With `Cc1ccc(Cn2cc(C(=O)Nc3c[nH]c(=O)c(-c4cc5cc(OCCN(C)C)ccc5[nH]4)c3)cn2)cc1` [Example 132, 1-(4-Methyl-benzyl)-1H-pyrazole-4-carboxylic acid {5-[5-(2-dimethylamino-ethoxy)-1H-indol-2-yl]-6-oxo-1,6-dihydro-pyridin-3-yl}-amide], the IC50 is under 100 nM.
Next, `CCc1cccc(Cn2cc(C(=O)Nc3c[nH]c(=O)c(-c4cc5cc(OCCN6CCN(C)CC6)ccc5[nH]4)c3)cn2)c1` [Example 133, 1-(3-Ethyl-benzyl)-1H-pyrazole-4-carboxylic acid (5-{5-[2-(4-methyl-piperazin-1-yl)-ethoxy]-1H-indol-2-yl}-6-oxo-1,6-dihydro-pyridin-3-yl)-amide]: under 100 nM; `CCc1cccc(Cn2cc(C(=O)Nc3c[nH]c(=O)c(-c4cc5cc(OCCCN6CCCCC6)ccc5[nH]4)c3)cn2)c1` [Example 134, 1-(3-Ethyl-benzyl)-1H-pyrazole-4-carboxylic acid {6-oxo-5-[5-(3-piperidin-1-yl-propoxy)-1H-indol-2-yl]-1,6-dihydro-pyridin-3-yl}-amide]: under 100 nM.
Next, `CCc1cccc(Cn2cc(C(=O)Nc3c[nH]c(=O)c(-c4cc5cc(OCCN6CCCCC6)ccc5[nH]4)c3)cn2)c1` [Example 135, 1-(3-Ethyl-benzyl)-1H-pyrazole-4-carboxylic acid {6-oxo-5-[5-(2-piperidin-1-yl-ethoxy)-1H-indol-2-yl]-1,6-dihydro-pyridin-3-yl}-amide]: under 100 nM.
With `CCc1cccc(Cn2cc(C(=O)Nc3c[nH]c(=O)c(-c4cc5cc(OCCCN(CC)CC)ccc5[nH]4)c3)cn2)c1` [Example 136, 1-(3-Ethyl-benzyl)-1H-pyrazole-4-carboxylic acid {5-[5-(3-diethylamino-propoxy)-1H-indol-2-yl]-6-oxo-1,6-dihydro-pyridin-3-yl}-amide], the IC50 is under 100 nM.
As for `Cc1ccc(Cn2cc(C(=O)Nc3c[nH]c(=O)c(-c4cc5cc(OCC(C)(C)CN(C)C)ccc5[nH]4)c3)cn2)cc1` [Example 137, 1-(4-Methyl-benzyl)-1H-pyrazole-4-carboxylic acid {5-[5-(3-dimethylamino-2,2-dimethyl-propoxy)-1H-indol-2-yl]-6-oxo-1,6-dihydro-pyridin-3-yl}-amide], the IC50 is under 100 nM.
In the case of `CCc1cccc(Cn2cc(C(=O)Nc3c[nH]c(=O)c(-c4cc5cc(OCCN6CC(C)OC(C)C6)ccc5[nH]4)c3)cn2)c1` (stereo not drawn) [Example 138, 1-(3-Ethyl-benzyl)-1H-pyrazole-4-carboxylic acid (5-{5-[2-(2,6-dimethyl-morpholin-4-yl)-ethoxy]1H-indol-2-yl}-6-oxo-1,6-dihydro-pyridin-3-yl)-amide], the IC50 is under 100 nM.
Next, `CCN(CC)CCCOc1ccc2[nH]c(-c3cc(NC(=O)c4cnn(Cc5ccccc5)c4)c[nH]c3=O)cc2c1` [Example 139, 1-Benzyl-1H-pyrazole-4-carboxylic acid {5-[5-(3-diethylamino-propoxy)-1H-indol-2-yl]-6-oxo-1,6-dihydro-pyridin-3-yl}-amide]: under 100 nM; `CN1CCN(CCCOc2ccc3[nH]c(-c4cc(NC(=O)c5cnn(Cc6ccccc6)c5)c[nH]c4=O)cc3c2)CC1` [Example 140, 1-Benzyl-1H-pyrazole-4-carboxylic acid {5-[5-[3-(4-methyl-piperazin-1-yl)-propoxy]-1H-indol-2-yl}-6-oxo-1,6-dihydro-pyridin-3-yl)-amide]: under 100 nM.
Next, `CCN(CC)CCOc1ccc2[nH]c(-c3cc(NC(=O)c4cnn(Cc5ccccc5)c4)c[nH]c3=O)cc2c1` [Example 141, 1-Benzyl-1H-pyrazole-4-carboxylic acid {5-[5-(2-diethylamino-ethoxy)-1H-indol-2-yl]-6-oxo-1,6-dihydro-pyridin-3-yl}-amide]: under 100 nM; `CN(C)CCOc1ccc2[nH]c(-c3cc(NC(=O)c4cnn(Cc5ccccc5)c4)c[nH]c3=O)cc2c1` [Example 142, 1-Benzyl-1H-pyrazole-4-carboxylic acid {5-[5-(2-dimethylamino-ethoxy)-1H-indol-2-yl]-6-oxo-1,6-dihydro-pyridin-3-yl}-amide]: under 100 nM.
Then `O=C(Nc1c[nH]c(=O)c(-c2cc3cc(OCCCN4CCCCC4)ccc3[nH]2)c1)c1cnn(Cc2ccccc2)c1` [Example 143, 1-Benzyl-1H-pyrazole-4-carboxylic acid {6-oxo-5-[5-(3-piperidin-1-yl-propoxy)-1H-indol-2-yl]-1,6-dihydro-pyridin-3-yl}-amide], with under 100 nM; and `O=C(Nc1c[nH]c(=O)c(-c2cc3cc(OCCN4CCCC4)ccc3[nH]2)c1)c1cnn(Cc2ccccc2)c1` [Example 144, 1-Benzyl-1H-pyrazole-4carboxylic acid {6-oxo-5-[5-(2-pyrrolidin-1-yl-ethoxy)-1H-indol-2-yl]-1,6-dihydro-pyridin-3-yl}-amide], with under 100 nM; and `CN(C)CCCOc1ccc2[nH]c(-c3cc(NC(=O)c4cnn(Cc5ccccc5)c4)c[nH]c3=O)cc2c1` [Example 145, 1-Benzyl-1H-pyrazole-4-carboxylic acid {5-[5-(3-dimethylamino-propoxy)-1H-indol-2-yl]-6oxo-1,6-dihydro-pyridin-3-yl}-amide], with under 100 nM.
`CN1CCN(CCOc2ccc3[nH]c(-c4cc(NC(=O)c5cnn(Cc6ccccc6)c5)c[nH]c4=O)cc3c2)CC1` [Example 146, 1-Benzyl-1H-pyrazole-4-carboxylic acid (5-{5-[2-(4-methyl-piperazin-1-yl)-ethoxy]-1H-indol-2-yl}-6-oxo-1,6-dihydro-pyridin-3-yl)-amide]: the IC50 is under 100 nM.
Regarding `CC1CN(CCOc2ccc3[nH]c(-c4cc(NC(=O)c5cnn(Cc6ccccc6)c5)c[nH]c4=O)cc3c2)CC(C)O1` (stereo not drawn) [Example 147, 1-Benzyl-1H-pyrazole-4-carboxylic acid (5-{5-[2-(2,6-dimethyl-morpholin-4-yl)-ethoxy]-1H-indol-2-yl}-6oxo-1,6-dihydro-pyridin-3-yl)-amide], the IC50 is under 100 nM.
In the case of `O=C(Nc1c[nH]c(=O)c(-c2cc3cc(OCCCN4CCCC4=O)ccc3[nH]2)c1)c1cnn(Cc2ccccc2)c1` [Example 148, 1-Benzyl-1H-pyrazole-4-carboxylic acid (6-oxo-5-{5-[3-(2-oxo-pyrrolidin-1-yl)-propoxy]-1H-indole-2-yl}-1,6-dihydro-pyridin-3-yl)-amide], the IC50 is under 100 nM.
Next, `O=C(Nc1c[nH]c(=O)c(-c2cc3cc(OCCN4CCCCC4)ccc3[nH]2)c1)c1cnn(Cc2ccccc2)c1` [Example 149, 1-Benzyl-1H-pyrazole-4-carboxylic acid {6-oxo-5-[5-(2-piperidin-1-yl-ethoxy)-1H-indol-2-yl]-1,6-dihydro-pyridin-3-yl}-amide]: under 100 nM; `CC(C)c1ccc(Cn2cc(C(=O)Nc3c[nH]c(=O)c(-c4cc5cc(OCCCN6CCCCC6)ccc5[nH]4)c3)cn2)cc1` [Example 150, 1-(4-Isopropylbenzyl)-1H-pyrazole-4-carboxylic acid-{6-oxo-5-[5-(3-piperidin-1-ylpropoxy)-1H-indol-2-yl]-1,6-dihydropyridin-3-yl}-amide]: under 100 nM.
